Source: patent US9365540B2, “Benzimidazole derivatives as MCH receptor antagonists” (Takeda Pharmaceutical Company Limited, priority 2012, dated 2016)
Counter-ions that a name gives are not always drawn.

Experiments:
[1] = target: T1, human MCH receptor 1 (MCHR1) (Homo sapiens, UniProt Q99705); test: human MCH receptor 1 (MCHR1) competitive binding assay with [125I]-MCH(4-19); details: test compound 0.1 μM, human MCHR1-expressing CHO cell membrane fraction; for inhibition at 0.1 µM: read-out: Binding inhibition rate % (0.1 μM)
T1 construct: expressed in transfected cells; host or cells: CHO cell clone 57 (membrane fraction)
Method: Determination of human MCH receptor 1 (MCHR1) competitive inhibitory activity of test compound using binding assay
1. Preparation of Membrane Fraction
Using human MCHR1 (=SLC-1 receptor)-expressing CHO cell clone 57 described in WO01/82925, MCHR1-expressing CHO cell membrane fractions were prepared by the following method.
In phosphate buffered saline (pH 7.4) supplemented with 5 mM EDTA (ethylenediaminetetraacetic acid) were respectively suspended human MCHR1-expressing CHO cells (1×10^8 cells) and centrifuged. Homogenate buffer (10 mL, 10 mM NaHCO3, 5 mM EDTA, pH 7.5, 0.5 mM PMSF (phenylmethylsulfonyl fluoride), 20 mg/L leupeptin, 4 mg/L E-64, 1 mg/L pepstatin A) was added to the pellets of the cells and, using Polytron Homogenizer, the mixture was homogenated. The supernatant obtained after centrifugation at 400×g for 10 min was further centrifuged at 100,000×g for 1 hr to give precipitate of the membrane fraction. The precipitate were suspended in 2 mL of assay buffer [20 mM Tris-HCl (pH 7.5), 5 mM EDTA, 0.5 mM PMSF, 20 mg/L leupeptin, 4 mg/L E-64, 1 mg/L pepstatin A]. The membrane fractions were suspended in assay buffer to a protein concentration of 2 mg/mL, and after dispensing, preserved at −80° C. and used upon thawing each time when in use.
The MCHR1 ligand binding inhibitory activity of the test compound was determined as follows.
An MCHR1-expressing CHO cell membrane fraction (173 μL) diluted with an assay buffer was dispensed to a 96 well polypropylene plate (3363, Corning). DMSO solution (2 μL), 33 μM cold MCH(1-19) diluted with DMSO solution (2 μL), or a test compound solution diluted with DMSO solution to various concentrations (2 μL) was added, and lastly, [^125I]-MCH (4-19) diluted with assay buffer (hereinafter, sometimes to be referred to as “hot MCH”, 25 μL) was added to each well. The mixture was reacted with stirring at room temperature for 1 hr, and the plate was set on FilterMate Harvester (PerkinElmer). Using a treating glass filter plate (GF/C, PerkinElmer) with polyethyleneimine, which had been previously set, the plate was suction-filtered and washed three times with washing buffer (50 mM Tris-HCl buffer pH 7.5). The glass filter plate was dried, MicroScinti0 (PerkinElmer) was added at 25 μL/well, and the resulting radioactivity was measured by TopCount liquid scintillation counter (PerkinElmer). The binding inhibition rate of the test compound was calculated by the following formula. Binding inhibition (%)=100−(radioactivity upon addition of test compound and hot MCH−radioactivity upon addition of cold MCH and hot MCH solution)/(radioactivity upon addition of DMSO solution and hot MCH−radioactivity upon addition of cold MCH and hot MCH solution)×100
The binding inhibition rates (%) of test compounds (0.1 μM) as measured using human MCHR1-expressing CHO cell are shown in Table 2.

human MCHR1 = target: T2, human MCHR1 (Homo sapiens, UniProt Q99705); test: MCH receptor 1 antagonistic activity, Ca2+ mobilization assay; assay type: cell-based; details: test compound 0.1 μM, human MCHR1-expressing CHO cells (clone #4), ligand MCH(4-19) 2 nM; for inhibition at 0.1 µM: CHO, read-out: Inhibitory rate % (0.1 μM)
T2 construct: expressed in transfected cells; host or cells: CHO dhfr- cells, clone #4
Method: Measurement of MCH Receptor 1 Antagonistic Activity of Test Compound Using Ca^2+ Mobilization Assay Using an expression vector plasmid introduced with human MCHR1 gene for expression in animal cells, human MCHR1 gene was introduced into CHO cells (CHO dhfr^−) by Lipofectamine LTX (Invitrogen). The cells were cultured in selection MEMα medium [445 mL of MEMα medium without nucleic acid and added with 5 mL of Penicillin-Streptomycin (Invitrogen) and 50 mL of dialyzed fetal bovine serum]. Colony 24 clones grown in the selection medium, which were human MCHR1 gene-expressing CHO cell candidates, were selected. […] In the following test, this human MCHR1-expressing CHO cell (clone #4) was used. An integrated dispensing function fluorometer (CellLux, PerkinElmer) was used for Ca^2+ mobilization assay. […] The medium was removed, and the cells were washed with phosphate buffered saline (PBS). […] The plate was set on a plate reader. […] The inhibition rates (%) of test compounds (0.1 μM) as antagonist activity measured using human MCHR1-expressing CHO cells (clone #4) are shown in the following Table 3.

T2 sequence (Q99705 whole entry): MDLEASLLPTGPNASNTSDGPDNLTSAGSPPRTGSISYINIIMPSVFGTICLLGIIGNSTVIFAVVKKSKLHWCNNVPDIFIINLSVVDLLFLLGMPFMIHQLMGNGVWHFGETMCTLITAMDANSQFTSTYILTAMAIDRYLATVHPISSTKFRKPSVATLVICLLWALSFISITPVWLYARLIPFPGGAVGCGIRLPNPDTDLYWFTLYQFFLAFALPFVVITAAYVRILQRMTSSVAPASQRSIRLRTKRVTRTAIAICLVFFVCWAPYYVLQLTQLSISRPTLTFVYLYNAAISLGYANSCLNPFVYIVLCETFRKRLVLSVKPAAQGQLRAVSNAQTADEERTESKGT
T1 sequence (Q99705 whole entry): as above

SMILES	inhibition at 0.1 µM [1] [%]	inhibition at 0.1 µM (human MCHR1) [%]	Binding inhibition rate % (0.1 μM) ([1]; hydrochloride) [%]	Inhibitory rate % (0.1 μM) (human MCHR1; hydrochloride) [%]	Binding inhibition rate % (0.1 μM) [1] [%]
Cn1c(C2CC2)nc2ccc(-n3ccc(OCc4nc(C(F)F)cs4)cc3=O)cc21 [Example 283, 1-(2-Cyclopropyl-1-methyl-1H-benzimidazol-6-yl)-4-((4-(difluoromethyl)-1,3-thiazol-2-yl)methoxy)pyridin-2(1H)-one]	56	99			
CCc1nc2ccc(-n3ccc(OCc4csc(C(F)F)n4)cc3=O)cc2n1C [Example 288, 4-((2-(Difluoromethyl)-1,3-thiazol-4-yl)methoxy)-1-(2-ethyl-1-methyl-1H-benzimidazol-6-yl)pyridin-2(1H)-one]	40	87			
Cc1csc(COc2ccn(-c3ccc4nc(C5CC5)n(C)c4c3)c(=O)c2)n1 [Example 268, 1-(2-Cyclopropyl-1-methyl-1H-benzimidazol-6-yl)-4-((4-methyl-1,3-thiazol-2-yl)methoxy)pyridin-2(1H)-one]	66	86			
Cc1c(C2CC2)nc2ccc(-n3ccc(OCc4ccc(Cl)cc4)nc3=O)cn12 [Example 70, 4-((4-Chlorobenzyl)oxy)-1-(2-cyclopropyl-3-methylimidazo[1,2-a]pyridin-6-yl)pyrimidin-2(1H)-one]	79	35			
Cc1c(C2CC2)nc2ccc(-n3ccc(NCc4ccc(Cl)s4)cc3=O)cn12 [Example 181, 4-(((5-Chloro-2-thienyl)methyl)amino)-1-(2-cyclopropyl-3-methylimidazo[1,2-a]pyridin-6-yl)pyridin-2(1H)-one]	57	21			
Cc1nc2ccc(-n3ccc(OCc4ccccc4)cc3=O)cc2n1C [Example 289, 4-(Benzyloxy)-1-(1,2-dimethyl-1H-benzimidazol-6-yl)pyridin-2(1H)-one]	48	100			
Cn1c(C2CC2)nc2ccc(-n3ccc(OCc4cc(F)c(F)s4)cc3=O)cc21 [Example 239, 1-(2-Cyclopropyl-1-methyl-1H-benzimidazol-6-yl)-4-((4,5-difluoro-2-thienyl)methoxy)pyridin-2(1H)-one]	74	92			
Cn1c(C2CC2)nc2ccc(-n3ccc(OCc4ccc(F)s4)cc3=O)cc21 [Example 157, 1-(2-Cyclopropyl-1-methyl-1H-benzimidazol-6-yl)-4-((5-fluorothiophen-2-yl)methoxy)pyridin-2(1H)-one]	71	95			
Cn1c(C2CC2C#N)nc2ccc(-n3ccc(OCc4ccc(Cl)cc4)cc3=O)cc21 (stereo not drawn) [Example 238, (1R*,2S*)-2-(6-(4-((4-Chlorobenzyl)oxy)-2-oxopyridin-1(2H)-yl)-1-methyl-1H-benzimidazol-2-yl)cyclopropanecarbonitrile hydrochloride]			65	42	
Cc1c(C2CC2)nc2ccc(-n3ccc(OCc4ccc(C(F)(F)F)o4)cc3=O)cn12 [Example 180, 1-(2-Cyclopropyl-3-methylimidazo[1,2-a]pyridin-6-yl)-4-((5-(trifluoromethyl)-2-furyl)methoxy)pyridin-2(1H)-one]	64	99			
CC(C)Cc1nc2ccc(-n3ccc(OCc4ccc(Cl)cc4)cc3=O)cc2n1C [Example 37, 4-((4-Chlorobenzyl)oxy)-1-(2-isobutyl-1-methyl-1H-benzimidazol-6-yl)pyridin-2(1H)-one]	59	51			
Cn1c([C@H]2C[C@H]2C#N)nc2ccc(-n3ccc(OCc4ccc(Cl)cc4)cc3=O)cc21 (racemic) [Example 148, (1RS,2SR)-2-(6-(4-((4-Chlorobenzyl)oxy)-2-oxopyridin-1(2H)-yl)-1-methyl-1H-benzimidazol-2-yl)cyclopropanecarbonitrile]	69	94			
Cn1c(C2CC2)nc2ccc(-n3ccc(OCc4cc(Br)c(F)s4)cc3=O)cc21 [Example 244, 4-((4-Bromo-5-fluoro-2-thienyl)methoxy)-1-(2-cyclopropyl-1-methyl-1H-benzimidazol-6-yl)pyridin-2(1H)-one]	83	98			
Cc1c(C2CC2)nc2ccc(-n3ccc(OCc4csc(C(F)(F)F)n4)cc3=O)cn12 [Example 179, 1-(2-Cyclopropyl-3-methylimidazo[1,2-a]pyridin-6-yl)-4-((2-(trifluoromethyl)-1,3-thiazol-4-yl)methoxy)pyridin-2(1H)-one]	64	94			
CCc1nc2ccc(-n3ccc(OCc4csc(C(F)(F)F)c4)cc3=O)cc2n1C [Example 265, 1-(2-Ethyl-1-methyl-1H-benzimidazol-6-yl)-4-((5-(trifluoromethyl)-3-thienyl)methoxy)pyridin-2(1H)-one]	61	97			
Cn1c(CC2CC2)nc2ccc(-n3ccc(OCc4ccc(Cl)cc4)cc3=O)cc21 [Example 91, 4-((4-Chlorobenzyl)oxy)-1-(2-(cyclopropylmethyl)-1-methyl-1H-benzimidazol-6-yl)pyridin-2(1H)-one]	67	70			
Cc1c(C2CC2)nc2ccc(-n3ccc(COc4ccc(F)cc4)cc3=O)cn12 [Example 170, 1-(2-Cyclopropyl-3-methylimidazo[1,2-a]pyridin-6-yl)-4-((4-fluorophenoxy)methyl)pyridin-2(1H)-one]	23	62			
Cn1c(C2CC2)nc2ccc(-n3ccc(OCc4cccc(F)c4)cc3=O)cc21 [Example 72, 1-(2-Cyclopropyl-1-methyl-1H-benzimidazol-6-yl)-4-((3-fluorobenzyl)oxy)pyridin-2(1H)-one]	80	58			
Cc1c(C2CC2)nc2ccc(-n3ccc(OCc4csc(Br)n4)cc3=O)cn12 [Example 189, 4-((2-Bromo-1,3-thiazol-4-yl)methoxy)-1-(2-cyclopropyl-3-methylimidazo[1,2-a]pyridin-6-yl)pyridin-2(1H)-one]	86	100			
Cn1c(C2CC2C(C)(C)F)nc2ccc(-n3ccc(OCc4ccc(Cl)cc4)cc3=O)cc21 (stereo not drawn) [Example 209, 4-((4-Chlorobenzyl)oxy)-1-(2-((1R*,2S*)-2-(2-fluoropropan-2-yl)cyclopropyl)-1-methyl-1H-benzimidazol-6-yl)pyridin-2(1H)-one]					89
Cn1c([C@@H]2C[C@@H]2C(C)(C)F)nc2ccc(-n3ccc(OCc4ccccc4)cc3=O)cc21 (racemic) [Example 155, 4-(Benzyloxy)-1-(2-((1RS,2SR)-2-(2-fluoropropan-2-yl)cyclopropyl)-1-methyl-1H-benzimidazol-6-yl)pyridin-2(1H)-one]	54				
CCn1c(C2CC2)nc2ccc(-n3ccc(OCc4ccc(F)cc4)cc3=O)cc21 [Example 20, 1-(2-Cyclopropyl-1-ethyl-1H-benzimidazol-6-yl)-4-((4-fluorobenzyl)oxy)pyridin-2(1H)-one]	59				
